The term IC50 denotes the midpoint of a concentration-inhibition curve.

The record followed here is patent US20230102554A1 (GB002, INC., priority 2019, published 2023).

Test [1] concerns the target T1, Human PDGFRα, cytoplasmic domain (GST-PDGFRα) (Homo sapiens, UniProt P16234).
T1 construct: made in house
Description: Human PDGFRα biochemical inhibition assay (off-chip Mobility Shift Assay).

The target in test [2] is T2, Human PDGFRβ, cytoplasmic domain (GST-PDGFRβ) (Homo sapiens, UniProt P09619).
T2 construct: made in house
T2 sequence (P09619 with tags, fused parts or gaps): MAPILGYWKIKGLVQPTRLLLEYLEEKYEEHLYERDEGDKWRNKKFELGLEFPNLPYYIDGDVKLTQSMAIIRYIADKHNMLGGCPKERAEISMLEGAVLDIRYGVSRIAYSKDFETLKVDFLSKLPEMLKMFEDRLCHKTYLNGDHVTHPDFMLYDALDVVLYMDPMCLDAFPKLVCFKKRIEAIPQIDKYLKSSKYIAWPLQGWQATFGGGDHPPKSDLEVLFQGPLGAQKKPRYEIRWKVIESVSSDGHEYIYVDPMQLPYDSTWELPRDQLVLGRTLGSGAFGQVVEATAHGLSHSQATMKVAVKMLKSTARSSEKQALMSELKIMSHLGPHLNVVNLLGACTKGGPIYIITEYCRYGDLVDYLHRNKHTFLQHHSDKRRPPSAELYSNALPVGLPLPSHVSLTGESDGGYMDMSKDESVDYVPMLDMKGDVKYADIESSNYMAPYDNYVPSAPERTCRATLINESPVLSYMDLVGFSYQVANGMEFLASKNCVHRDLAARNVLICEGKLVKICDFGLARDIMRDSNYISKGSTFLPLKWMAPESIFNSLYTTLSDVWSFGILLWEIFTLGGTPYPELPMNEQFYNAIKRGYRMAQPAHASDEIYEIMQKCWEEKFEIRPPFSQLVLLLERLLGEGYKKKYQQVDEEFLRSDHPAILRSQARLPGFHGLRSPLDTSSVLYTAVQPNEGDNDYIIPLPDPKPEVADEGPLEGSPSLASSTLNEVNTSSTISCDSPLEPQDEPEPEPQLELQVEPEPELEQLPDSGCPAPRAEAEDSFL
Put plainly: Human PDGFRβ biochemical inhibition assay (off-chip Mobility Shift Assay). The gist of the method: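 GST-tagged cytoplasmic domain (aa 557-1106) from baculovirus was incubated 1 h at room temperature with compound, CSKtide, ATP at Km and Mg²⁺ in HEPES buffer, pH 7.5. Phosphorylated and unphosphorylated peptide were separated by off-chip mobility shift, and the product ratio P/(P+S) gave percent inhibition.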

T1 sequence (P16234 550-1089 T674I): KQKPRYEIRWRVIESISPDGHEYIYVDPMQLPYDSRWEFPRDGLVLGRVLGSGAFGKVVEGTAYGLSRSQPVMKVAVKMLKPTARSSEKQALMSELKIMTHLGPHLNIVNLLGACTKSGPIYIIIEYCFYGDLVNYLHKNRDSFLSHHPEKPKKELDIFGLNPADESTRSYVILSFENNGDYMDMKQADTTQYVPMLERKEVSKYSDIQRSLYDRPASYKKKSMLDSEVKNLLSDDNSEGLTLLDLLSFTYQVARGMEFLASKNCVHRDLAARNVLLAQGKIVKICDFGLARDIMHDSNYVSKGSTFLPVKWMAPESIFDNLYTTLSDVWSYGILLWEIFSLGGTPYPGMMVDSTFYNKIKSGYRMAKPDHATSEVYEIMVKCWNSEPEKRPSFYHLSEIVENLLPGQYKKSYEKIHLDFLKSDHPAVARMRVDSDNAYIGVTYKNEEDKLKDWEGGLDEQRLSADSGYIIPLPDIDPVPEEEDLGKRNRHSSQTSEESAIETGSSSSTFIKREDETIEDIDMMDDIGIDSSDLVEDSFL

With `CCn1cc2ncc(N[C@@H](C)c3cc(NC(=O)Cc4cnc(C)c(F)c4)ccc3C)nc2n1` [Compound 707, (S)-N-(3-(1-((2-ethyl-2H-pyrazolo[3,4-b]pyrazin-6-yl)amino)ethyl)-4-methylphenyl)-2-(5-fluoro-6-methylpyridin-3-yl)acetamide], the IC50 was < 300 nM in test [1] and 300 to 1000 nM in test [2].
The matching figures for `Cc1cncc(C(=O)Nc2cccc([C@H](C)Nc3cnc4ccoc4n3)c2)c1` [Compound 605, (S)-N-(3-(1-(furo[2,3-b]pyrazin-3-ylamino)ethyl)phenyl)-5-methylnicotinamide]: < 300 nM and < 300 nM.
The matching figures for `C[C@H](Nc1cnc2cnn(C)c2n1)c1cccc(NC(=O)c2cnc(C3CC3)s2)c1` [Compound 140, (S)-2-cyclopropyl-N-(3-(1-((1-methyl-1H-pyrazolo[3,4-b]pyrazin-6-yl)amino)ethyl)phenyl)thiazole-5-carboxamide]: < 300 nM and < 300 nM.
Regarding `CCn1cc2ncc(N[C@@H](C)c3cccc(NC(=O)c4cnc(Br)s4)c3)nc2n1` [Compound 324, (S)-2-bromo-N-(3-(1-((2-ethyl-2H-pyrazolo[3,4-b]pyrazin-6-yl)amino)ethyl)phenyl)thiazole-5-carboxamide], the IC50 in test [1] is < 300 nM; in test [2], 300 to 1000 nM.
For the compound `CCn1cc2ncc(N[C@@H](C)c3cc(NC(=O)Cc4ccc(C5CCC5)cn4)ccc3F)nc2n1` [Compound 667, (S)-2-(5-cyclobutylpyridin-2-yl)-N-(3-(1-((2-ethyl-2H-pyrazolo[3,4-b]pyrazin-6-yl)amino)ethyl)-4-fluorophenyl) acetamide], the half-inhibitory concentration (IC50) was < 300 nM in test [1] and ≥ 1000 nM in test [2].
As to `CCn1cc2ncc(N[C@@H](C)c3cccc(NC(=O)c4cnc(Cl)c(C)c4)c3)nc2n1` [Compound 383, (S)-6-chloro-N-(3-(1-((2-ethyl-2H-pyrazolo[3,4-b]pyrazin-6-yl)amino)ethyl)phenyl)-5-methylnicotinamide], the half-inhibitory concentration (IC50) in test [1] and in test [2] was < 300 nM throughout.
In the case of `CCn1cc2ncc(N[C@@H](C)c3cccc(NC(=O)c4ccc(CN5CC[C@H](O)C5)c(C)c4)c3)nc2n1` [Compound 471, N-(3-((S)-1-((2-ethyl-2H-pyrazolo[3,4-b]pyrazin-6-yl)amino)ethyl)phenyl)-4-(((S)-3-hydroxypyrrolidin-1-yl)methyl)-3-methylbenzamide], the half-maximal inhibitory concentration (IC50) is 300 to 1000 nM in test [1] and ≥ 1000 nM in test [2].
Regarding `CCn1cc2ncc(N[C@@H](C)c3cc(NC(=O)c4ccc(CN5CCCC5)c(Cl)c4)ccc3F)nc2n1` [Compound 426, (S)-3-chloro-N-(3-(1-((2-ethyl-2H-pyrazolo[3,4-b]pyrazin-6-yl)amino)ethyl)-4-fluorophenyl)-4-(pyrrolidin-1-ylmethyl) benzamide], the IC50 in test [1] and in test [2] was < 300 nM in each case.
Consider `C=Cc1ccc(C(=O)Nc2cccc([C@H](C)Nc3cnc4cnn(C)c4n3)c2)cc1C` [Compound 246, (S)-3-methyl-N-(3-(1-((1-methyl-1H-pyrazolo[3,4-b]pyrazin-6-yl)amino)ethyl)phenyl)-4-vinylbenzamide], for which the IC50 in test [1] and in test [2] was < 300 nM in each case.
In the case of `CCn1cc2ncc(N[C@@H](C)c3cccc(NC(=O)Cc4cc(C)c(F)cn4)c3)nc2n1` [Compound 686, (S)-N-(3-(1-((2-ethyl-2H-pyrazolo[3,4-b]pyrazin-6-yl)amino)ethyl)phenyl)-2-(5-fluoro-4-methylpyridin-2-yl) acetamide], the IC50 in test [1] is < 300 nM; in test [2], 300 to 1000 nM.
Take `Cc1cc(C(=O)Nc2cccc([C@H](C)Nc3cnc4cnn(C)c4n3)c2)ccc1C(=O)OCCN1CCOCC1` [Compound 264, 2-morpholinoethyl (S)-2-methyl-4-((3-(1-((1-methyl-1H-pyrazolo[3,4-b]pyrazin-6-yl)amino)ethyl)phenyl)carbamoyl) benzoate]: the half-maximal inhibitory concentration (IC50) in test [1] and in test [2] was < 300 nM throughout.
Regarding `CCn1cc2ncc(N[C@@H](C)c3cc(NC(=O)c4cnc(N5CCN(C)CC5)c(C)c4)ccc3C)nc2n1` [Compound 514, (S)-N-(3-(1-((2-ethyl-2H-pyrazolo[3,4-b]pyrazin-6-yl)amino)ethyl)-4-methylphenyl)-5-methyl-6-(4-methylpiperazin-1-yl)nicotinamide], the IC50 in test [1] and in test [2] was < 300 nM in each case.
Consider `COCCn1ccc2ncc(N[C@@H](C)c3cccc(NC(=O)c4cncc(C)c4)c3)nc21` [Compound 84, (S)-N-(3-(1-((5-(2-methoxyethyl)-5H-pyrrolo [2,3-b]pyrazin-3-yl)amino)ethyl)phenyl)-5-methylnicotinamide], for which the values for the IC50 in test [1] and in test [2] were < 300 nM and 300 to 1000 nM, respectively.
In the case of `CCn1cc2ncc(N[C@@H](C)c3cc(NC(=O)Cc4ccc(C(C)C)cn4)ccc3C)nc2n1` [Compound 710, (S)-N-(3-(1-((2-ethyl-2H-pyrazolo[3,4-b]pyrazin-6-yl)amino)ethyl)-4-methylphenyl)-2-(5-isopropylpyridin-2-yl) acetamide], the half-inhibitory concentration (IC50) in test [1] is < 300 nM; in test [2], ≥ 1000 nM.
For `CCc1ncc(C(=O)Nc2cccc([C@H](C)Nc3cnc4cn(CC)nc4n3)c2)s1` [Compound 341, (S)-2-ethyl-N-(3-(1-((2-ethyl-2H-pyrazolo[3,4-b]pyrazin-6-yl)amino)ethyl)phenyl)thiazole-5-carboxamide], in that order: < 300 nM and < 300 nM.
For `CCn1cc2ncc(N[C@@H](C)c3cccc(NC(=O)c4ccc(CN5CCN(C)CC5)nc4)c3)nc2n1` [Compound 387, (S)-N-(3-(1-((2-ethyl-2H-pyrazolo[3,4-b]pyrazin-6-yl)amino)ethyl)phenyl)-6-((4-methylpiperazin-1-yl)methyl) nicotinamide], in that order: < 300 nM and ≥ 1000 nM.
For `CCn1cc2ncc(N[C@@H](C)c3cc(NC(=O)c4cnc(N5CCN(C)CC5)c(Cl)c4)ccc3F)nc2n1` [Compound 456, (S)-5-chloro-N-(3-(1-((2-ethyl-2H-pyrazolo[3,4-b]pyrazin-6-yl)amino)ethyl)-4-fluorophenyl)-6-(4-methylpiperazin-1-yl) nicotinamide], in that order: < 300 nM and < 300 nM.
In the case of `CCn1cc2ncc(N[C@@H](C)c3cccc(NC(=O)c4cnc(N5CCN(C)CC5)c(C(F)(F)F)c4)c3)nc2n1` [Compound 422, (S)-N-(3-(1-((2-ethyl-2H-pyrazolo[3,4-b]pyrazin-6-yl)amino)ethyl)phenyl)-6-(4-methylpiperazin-1-yl)-5-(trifluoromethyl)nicotinamide], the IC50 in test [1] and in test [2] was < 300 nM each time.
In the case of `CCn1cc2ncc(N[C@@H](C)c3cccc(NC(=O)c4ccc(CN5CC(O)C5)c(C)c4)c3)nc2n1` [Compound 496, (S)-N-(3-(1-((2-ethyl-2H-pyrazolo[3,4-b]pyrazin-6-yl)amino)ethyl)phenyl)-4-((3-hydroxyazetidin-1-yl)methyl)-3-methylbenzamide], the half-inhibitory concentration (IC50) was < 300 nM in test [1] and 300 to 1000 nM in test [2].
`Cc1ncc(C(=O)Nc2cccc([C@H](C)Nc3cnc4[nH]cc(-c5cnn(C)c5)c4n3)c2)s1` [Compound 583, (S)-2-methyl-N-(3-(1-((7-(1-methyl-1H-pyrazol-4-yl)-5H-pyrrolo[2,3-b]pyrazin-2-yl)amino)ethyl)phenyl)thiazole-5-carboxamide]: the IC50 in test [1] and in test [2] was < 300 nM throughout.
As to `C[C@H](Nc1cnc2cnn(C)c2n1)c1cccc(NC(=O)Nc2ccccc2)c1` [Compound 729, (S)-1-(3-(1-((1-methyl-1H-pyrazolo[3,4]pyrazin-6-yl)amino)ethyl)phenyl)-3-phenylurea], the IC50 in test [1] and in test [2] was < 300 nM each time.
In the case of `CCn1ncc2ncc(N[C@@H](C)c3cccc(NC(=O)c4cncc(C)c4)c3)cc21` [Compound 7], the figures for the IC50 in test [1] and in test [2] were < 300 nM and ≥ 1000 nM, respectively.
For `CCn1cc2ncc(N[C@@H](C)c3cccc(NC(=O)c4ccc(C5CC5)nc4)c3)nc2n1` [Compound 283, (S)-6-cyclopropyl-N-(3-(1-((2-ethyl-2H-pyrazolo[3,4-b]pyrazin-6-yl)amino)ethyl)phenyl)nicotinamide], in that order: < 300 nM and < 300 nM.
For `C[C@H](Nc1cnc2cn(CC3CNC3)nc2n1)c1cc(NC(=O)c2cnc(C(F)(F)F)s2)ccc1F` [Compound 391, (S)-N-(3-(1-((2-(azetidin-3-ylmethyl)-2H-pyrazolo[3,4-b]pyrazin-6-yl)amino)ethyl)-4-fluorophenyl)-2-(trifluoromethyl)thiazole-5-carboxamide], in that order: < 300 nM and < 300 nM.
As to `COc1ccc2nc(N[C@@H](C)c3cccc(NC(=O)c4cncc(C)c4)c3)cnc2c1` [Compound 33, (S)-N-(3-(1-((6-methoxyquinoxalin-2-yl)amino)ethyl)phenyl)-5-methylnicotinamide], the IC50 in test [1] and in test [2] was < 300 nM throughout.
As for `CCn1cc2ncc(N[C@@H](C)c3cccc(NC(=O)c4cnc(OCC5CC5)c(C)c4)c3)nc2n1` [Compound 315, (S)-6-(cyclopropylmethoxy)-N-(3-(1-((2-ethyl-2H-pyrazolo[3,4-b]pyrazin-6-yl)amino)ethyl)phenyl)-5-methylnicotinamide], the IC50 in test [1] and in test [2] was < 300 nM in each case.
Turning to `CCn1cc2ncc(N[C@@H](C)c3cccc(NC(=O)c4cnc5[nH]ncc5c4)c3)nc2n1` [Compound 60, (S)-N-(3-(1-((2-ethyl-2H-pyrazolo[3,4-b]pyrazin-6-yl)amino)ethyl)phenyl)-1H-pyrazolo[3,4-b]pyridine-5-carboxamide], the 50% inhibitory concentration (IC50) in test [1] and in test [2] was ≥ 1000 nM each time.
